Laboratory results published in patent US6713265B1 (Synaptic Pharmaceutical Corporation, priority 1999, dated 2004).

Experiments:
α1a = target: T1, α1a (Homo sapiens, UniProt P35348); test: Binding at cloned human α1a adrenergic receptor
T1 sequence (P35348 1-466): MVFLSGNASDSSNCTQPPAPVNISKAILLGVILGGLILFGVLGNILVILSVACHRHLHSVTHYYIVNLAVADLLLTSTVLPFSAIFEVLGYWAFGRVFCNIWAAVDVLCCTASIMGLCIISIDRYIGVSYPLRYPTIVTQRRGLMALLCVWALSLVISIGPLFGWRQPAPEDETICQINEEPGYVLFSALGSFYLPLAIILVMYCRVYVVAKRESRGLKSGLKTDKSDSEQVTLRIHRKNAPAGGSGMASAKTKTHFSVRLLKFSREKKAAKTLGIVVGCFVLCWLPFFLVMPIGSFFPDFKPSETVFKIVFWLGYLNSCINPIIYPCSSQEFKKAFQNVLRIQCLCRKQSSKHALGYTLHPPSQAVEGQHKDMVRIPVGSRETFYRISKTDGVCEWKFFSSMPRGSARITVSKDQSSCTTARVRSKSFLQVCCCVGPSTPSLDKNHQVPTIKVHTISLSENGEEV

5HT1Dα = 5HT1Dα (Homo sapiens, UniProt P28221); test: Binding at cloned human 5HT1Dα receptor
Protocol: The cell line for the 5HT1Dα receptor, designated as Ltk-8-30-84, was deposited on Apr. […] The cell for the 5HT1Dβ receptor, designated as Ltk-11, was deposited on Apr. […] Membrane preparations comprising these receptors were prepared as described below, and suspended in 50 mM Tris-HCl buffer (pH 7.4 at 37° C.) containing 10 mM MgCl2, 0.2 mM EDTA, 10 μM pargyline, and 0.1% ascorbate. The binding of compounds was determined in competition binding assays by incubation for 30 minutes at 37° C. in the presence of 5 nM [^3H]serotonin. Nonspecific binding was determined in the presence of 10 μM serotonin.

human Y5 receptor [1] = target: T2, human Y5 receptor (Homo sapiens, UniProt Q15761); test: Radioligand binding to membranes of cells expressing cloned human Y5 receptor; parameters: Ki Values, Human Y5; apparent Kd; pKd; The isolated clone (CG-19) turned out to contain a full length cDNA; The longest open reading frame encodes a 455 amino acid protein; conditions: read-out: Binding Affinity Ki vs. ^125I-PYY, Human Receptor Y5; Table 14; stably transfected LM(tk-) cells
T2 sequence (Q15761 1-445): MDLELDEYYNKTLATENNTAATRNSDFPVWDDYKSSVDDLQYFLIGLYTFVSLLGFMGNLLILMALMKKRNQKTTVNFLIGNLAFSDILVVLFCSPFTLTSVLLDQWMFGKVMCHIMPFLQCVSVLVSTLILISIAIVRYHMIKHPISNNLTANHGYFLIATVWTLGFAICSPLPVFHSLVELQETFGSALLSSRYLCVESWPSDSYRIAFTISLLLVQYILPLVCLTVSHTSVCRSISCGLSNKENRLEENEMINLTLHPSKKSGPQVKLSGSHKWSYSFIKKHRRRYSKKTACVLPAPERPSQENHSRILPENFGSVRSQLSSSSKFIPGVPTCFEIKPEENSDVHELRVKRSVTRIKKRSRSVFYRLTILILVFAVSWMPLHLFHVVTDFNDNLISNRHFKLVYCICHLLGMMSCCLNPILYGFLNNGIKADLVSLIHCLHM

α2a = target: T3, α2a (Homo sapiens, UniProt P08913); test: Binding at cloned human α2a adrenergic receptor
T3 sequence (P08913 1-465): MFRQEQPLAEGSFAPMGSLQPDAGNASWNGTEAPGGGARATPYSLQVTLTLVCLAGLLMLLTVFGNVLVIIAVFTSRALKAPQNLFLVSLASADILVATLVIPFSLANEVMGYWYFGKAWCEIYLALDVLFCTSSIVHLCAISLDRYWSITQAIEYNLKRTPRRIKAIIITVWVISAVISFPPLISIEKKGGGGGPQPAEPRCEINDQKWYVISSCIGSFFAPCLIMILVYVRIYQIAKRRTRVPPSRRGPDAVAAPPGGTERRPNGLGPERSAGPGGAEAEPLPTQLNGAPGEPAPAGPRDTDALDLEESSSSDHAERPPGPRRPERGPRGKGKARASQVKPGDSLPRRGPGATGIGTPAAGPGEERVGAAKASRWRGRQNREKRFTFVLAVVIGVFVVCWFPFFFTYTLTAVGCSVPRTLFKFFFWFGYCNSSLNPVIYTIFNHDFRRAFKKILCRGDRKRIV

food intake = test: Food intake in food-deprived rats; type: in vivo, rat; conditions: 30 mg/kg i.p., after 24h food deprivation
Protocol: After receipt, the animals are individually housed for the duration of the study and allowed free access to normal food together with tap water. The animals are maintained in a room with a 12 h light/dark cycle (8:00 a.m. to 8:00 p.m. light) at 24° C. and monitored humidity. After placement into individual cages the rats undergo a 4 day equilibration period, during which they are habituated to their new environment and to eating a powdered or pellet diet NAFAG, Gossau, Switzerland).
At the end of the equilibration period, food is removed from the animals for 24 hours starting at 8:00 a.m. At the end of the fasting period compound or vehicle may be administered to the animals orally or by injection intraperitoneally or intravenously. After 10-60 min. food is returned to the animals and their food intake is monitored at various time periods during the following 24 hour period. The food intake of animals treated with test compound may be calculated as a percentage of the food intake of control animals (i.e., animals treated with vehicle). Alternatively, food intake for each group of animals subjected to a particular experimental condition may be expressed as the mean±S.E.M.
Measurements were performed two hours after administration of the test compound.

human Y1 receptor = target: T4, human Y1 receptor (Homo sapiens, UniProt P25929); test: ^125I-PYY binding to membranes, cloned human Y1 receptor; conditions: read-out: Binding Affinity Ki vs. ^125I-PYY, Human Receptor Y1; Table 14; stably transfected 293 cells (compound 1 also COS-7)
T4 construct: expressed in transfected cells; host or cells: COS-7 (transient)
T4 sequence (P25929 1-384): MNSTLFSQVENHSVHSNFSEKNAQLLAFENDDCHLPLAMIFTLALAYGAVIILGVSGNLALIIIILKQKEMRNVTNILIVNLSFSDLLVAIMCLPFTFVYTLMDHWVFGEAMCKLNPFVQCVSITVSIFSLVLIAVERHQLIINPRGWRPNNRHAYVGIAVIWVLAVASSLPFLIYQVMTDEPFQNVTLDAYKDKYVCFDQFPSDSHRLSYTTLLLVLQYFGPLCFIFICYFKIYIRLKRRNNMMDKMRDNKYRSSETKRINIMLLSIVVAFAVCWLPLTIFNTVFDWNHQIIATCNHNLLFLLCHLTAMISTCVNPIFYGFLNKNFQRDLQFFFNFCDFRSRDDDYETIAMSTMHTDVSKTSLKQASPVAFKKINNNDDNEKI

human Y5 receptor [2] = target: T2, human Y5 receptor; test: Radioimmunoassay of cAMP, cells stably expressing human Y5 receptor; type: cell-based; parameters: Ki Values, Human Y5; apparent Kd; pKd; The isolated clone (CG-19) turned out to contain a full length cDNA; The longest open reading frame encodes a 455 amino acid protein; conditions: block of NPY-induced inhibition of cAMP accumulation, forskolin-stimulated LM(tk-) cells, human Y5
Protocol: LM(tk-) cells stably transfected with the human Y5 receptor were routinely converted from an adherent monolayer to a viable suspension. […] The cell suspension was maintained in a shaking incubator at 37° C., 5% CO2 for 24 hours. […] Alternatively, cells may be returned to adherent cell culture in complete DMEM by distribution into 96-well microtiter plates coated with poly-D-lysine (0.01 mg/ml) followed by incubation at 37° C., 5% CO2 for 24 hours.
The maximum inhibition of cAMP accumulation (Emax) and the concentration producing a half-maximal effect (EC50) were determined by nonlinear regression analysis according to a 4 parameter logistic equation.
The ability of the compounds to antagonize the Y-type receptors is reported as the Kb. […] The results shown are representative of at least three independent experiments.

human Y4 receptor = target: T5, human Y4 receptor (Homo sapiens, UniProt P50391); test: ^125I-PYY binding to membranes, cloned human Y4 receptor; conditions: read-out: Binding Affinity Ki vs. ^125I-PYY, Human Receptor Y4; Table 14; stably transfected LM(tk-) cells
T5 construct: expressed in transfected cells; host or cells: COS-7 (transient)

5HT7 = 5HT7 (Homo sapiens, UniProt P34969); test: Binding at cloned human 5HT7 receptor
5HT7, sequence (P34969 1-445 isoform P34969-2): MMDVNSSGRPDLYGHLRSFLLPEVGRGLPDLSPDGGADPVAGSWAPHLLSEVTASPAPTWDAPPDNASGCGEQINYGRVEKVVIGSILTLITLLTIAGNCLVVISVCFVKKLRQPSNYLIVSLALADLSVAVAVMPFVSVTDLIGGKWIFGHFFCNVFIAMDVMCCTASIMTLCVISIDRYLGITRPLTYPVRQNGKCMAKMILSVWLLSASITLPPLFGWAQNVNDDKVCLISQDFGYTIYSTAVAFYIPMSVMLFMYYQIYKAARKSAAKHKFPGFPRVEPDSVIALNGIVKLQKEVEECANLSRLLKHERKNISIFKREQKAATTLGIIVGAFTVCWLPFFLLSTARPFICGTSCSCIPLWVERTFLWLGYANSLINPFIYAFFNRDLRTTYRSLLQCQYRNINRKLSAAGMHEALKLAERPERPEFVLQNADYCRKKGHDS

5HT1Dα, sequence (P28221 whole entry): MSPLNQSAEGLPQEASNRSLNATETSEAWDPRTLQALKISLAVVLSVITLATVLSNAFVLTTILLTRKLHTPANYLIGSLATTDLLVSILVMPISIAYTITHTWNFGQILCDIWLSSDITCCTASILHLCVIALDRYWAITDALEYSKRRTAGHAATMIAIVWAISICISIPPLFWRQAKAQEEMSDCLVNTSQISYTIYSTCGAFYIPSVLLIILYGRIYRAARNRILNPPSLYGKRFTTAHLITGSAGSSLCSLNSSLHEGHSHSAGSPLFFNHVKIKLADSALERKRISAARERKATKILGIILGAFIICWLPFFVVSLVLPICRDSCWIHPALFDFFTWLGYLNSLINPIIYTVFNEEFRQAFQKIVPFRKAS
T5 sequence (P50391 whole entry): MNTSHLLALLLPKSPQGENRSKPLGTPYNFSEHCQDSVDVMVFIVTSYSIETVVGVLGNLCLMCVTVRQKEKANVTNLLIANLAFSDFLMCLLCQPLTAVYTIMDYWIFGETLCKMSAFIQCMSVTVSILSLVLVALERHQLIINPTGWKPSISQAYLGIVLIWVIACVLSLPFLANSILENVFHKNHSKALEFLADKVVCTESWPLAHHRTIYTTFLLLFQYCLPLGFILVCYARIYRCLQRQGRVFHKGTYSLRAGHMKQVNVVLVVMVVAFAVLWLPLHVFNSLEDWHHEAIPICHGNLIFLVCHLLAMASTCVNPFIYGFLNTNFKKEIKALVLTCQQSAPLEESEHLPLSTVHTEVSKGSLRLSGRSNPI

SMILES	pKi α1a (α1a)	pKi 5HT1Dα (5HT1Dα)	Ki (human Y5 receptor [1]) [µM]	pKi α2a (α2a)	Two-hour food intake of food-deprived rats, percentage of intake compared to control rats, Mean (food intake) [%]	Ki (human Y1 receptor) [µM]	Kb (human Y5 receptor [2]) [µM]	Ki (human Y4 receptor) [µM]	pKi 5HT7 (5HT7)
Cl.O=S(=O)(NC[C@H]1CC[C@H](CNCC2CCc3ccccc3C2)CC1)c1cccc2ccccc12 (mixture of isomers) [Compound 19]	7.47	6.04	0.011	6.74	36	3.55	0.023	11.7	6.42
Cl.O=[N+]([O-])c1ccccc1S(=O)(=O)NC[C@H]1CC[C@H](CNCC2CCc3ccccc3C2)CC1 (mixture of isomers) [Compound 20]	7.72	5.94	0.0083	7.31	35	16	0.026	20.4	6.37
Cl.Cl.Nc1ccccc1S(=O)(=O)NC[C@H]1CC[C@H](CNCC2CCc3ccccc3C2)CC1 (mixture of isomers) [Compound 22]	7.34	5.98	0.011	7.05	55	17.2	0.003	27.5	6.39
